According to US10508111B2, “6-[5-amino-6-(2-ethoxyethoxy)-imidazo[4,5-B]pyridin-3-yl]-nicotinonitrile derivatives and their use as IRAK inhibitors” (GALAPAGOS NV, priority 2015, dated 2019):

What was measured:
Assay type in all cases: biochemical
[1] = biological target: T1, CDK9 (Homo sapiens, UniProt P50750); experiment: Kinase selectivity profiling (focused panel), radioactive filter plate assay: CDK9; settings: PDKtide, 0.25 μM ATP, 60 min
T1 construct: purchased Millipore 14-685
Description: (§1) The purpose of this assay is to determine the activity and selectivity of a compound of the invention on a selected range of human kinases which may result in undesirable side-effects when inhibited (Dy & Adjei 2013; Force & Kolaja 2011).
(§2) The IC50 value for off-target kinases is determined in radioactive filter plate assays. The principle of the assays consists in the measurement of incorporated ^33P into a peptide substrate upon phosphorylation by the kinase enzyme using [γ-^33P]ATP and ATP. Unincorporated ^33P is removed by loading the samples on a filter plate (using a harvester, PerkinElmer) and 6 subsequent washing steps. Incorporated ^33P in the peptide substrate is measured by a scintillation counter (Topcount, PerkinElmer) after addition of MicroScint™-20 (PerkinElmer, 6013621) to the filter plates.
(§3) 5 μL of a water dilution series of test compound (starting from 20 μM or 6.6 μM highest concentration), from a 100% DMSO stock solution, 1/5 dilution, is added to the wells (final DMSO concentration of 1% in reaction assay). Enzyme and peptide substrate are used at optimized concentrations (cf. Table VI). The enzyme and substrate are diluted in assay buffer to a total volume of 11 μL. The reaction is started by addition of 9 μL of ATP+[γ-^33P]ATP, diluted in the same buffer as enzyme and substrate. The mixture is incubated at 30° C. The reaction is terminated by adding 25 μL of 150 mM phosphoric acid. Samples are transferred to filter plates and incorporated radioactivity is measured using a scintillation counter.
(§4) The incubation time, assay buffer composition, and concentrations of ATP, enzyme and substrate are reported in Table VI for example kinase off-target assays.
(§5) 10 μM staurosporine (1% DMSO) is used as positive control (100% inhibition); vehicle (water+1% DMSO) as negative control (0% inhibition).

[2] = biological target: T2, c-SRC (Homo sapiens, UniProt P12931); experiment: Kinase selectivity profiling (focused panel), radioactive filter plate assay: c-SRC; settings: PolyGT substrate, 0.25 μM ATP, 60 min
T2 construct: purchased Carna Biosciences 08-173
Description: as §1, §2, §3, §4, §5

[3] = biological target: T3, human IRAK-4 (Homo sapiens, UniProt Q9NWZ3); experiment: IC50 determination for human IRAK-4, radioactive filter plate assay; settings: RIP140 substrate, 1 μM ATP + [γ-33P]ATP, 30° C., 45 min; read-out: hIRAK-4 IC50
T3 construct: purchased Carna Biosciences 09-145
T3 sequence (Q9NWZ3 1-460): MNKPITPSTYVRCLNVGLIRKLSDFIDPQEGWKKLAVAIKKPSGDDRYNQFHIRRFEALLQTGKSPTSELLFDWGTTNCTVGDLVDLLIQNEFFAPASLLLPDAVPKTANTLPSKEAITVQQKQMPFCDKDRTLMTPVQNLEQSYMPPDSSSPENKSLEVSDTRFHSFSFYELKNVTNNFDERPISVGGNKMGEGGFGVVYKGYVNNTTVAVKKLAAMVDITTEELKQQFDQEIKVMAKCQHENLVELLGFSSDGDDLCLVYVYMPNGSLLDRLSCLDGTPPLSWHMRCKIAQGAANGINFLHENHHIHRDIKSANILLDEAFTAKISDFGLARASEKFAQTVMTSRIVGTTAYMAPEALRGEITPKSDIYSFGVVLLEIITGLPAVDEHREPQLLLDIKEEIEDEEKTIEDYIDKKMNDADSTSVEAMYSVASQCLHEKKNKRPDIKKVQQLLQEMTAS
Description: The IC50 value for IRAK-4 is determined in a radioactive filter plate assay. The principle of the assay consists in the measurement of incorporated ^33P into the RIP140 substrate upon phosphorylation by the enzyme IRAK-4 using [γ-^33P]ATP and ATP. Unincorporated ^33P is removed by loading the samples on a filter plate (using a harvester, PerkinElmer) and 6 subsequent washing steps. Incorporated ^33P in RIP140 is measured by a scintillation counter (Topcount, PerkinElmer) after addition of MicroScint™-20 (PerkinElmer, 6013621) to the filter plates.
5 μL of a water dilution series of test compound (starting from 20 μM or 6.6 μM highest concentration), from a 100% DMSO stock solution, 1/5 dilution, is added to the wells (final DMSO concentration of 1% in reaction assay). IRAK-4 (Carna Biosciences, 09-145) and RIP140 (SEQ ID1, cf. Table VII) are used at a final concentration of 10 ng/mL and 4 μM, respectively. The enzyme and substrate are diluted in 25 mM Tris pH 7.5, 0.025% Triton X-100, 5 mM MnCl2, and 2 mM DTT to a total volume of 11 μL. The reaction is started by addition of 9 μL of 1 μM ATP (Sigma, A6419-5G)+0.25 μCi [γ-^33P]ATP (PerkinElmer, NEG602K001MC), diluted in the same buffer as enzyme and substrate. The mixture is incubated at 30° C. for 45 min. The reaction is terminated by adding 25 μL of 150 mM phosphoric acid (VWR, 1.00573.1000). Samples are transferred to filter plates and incorporated radioactivity is measured using a scintillation counter.
as §5

[4] = biological target: T4, CDK2 (Homo sapiens, UniProt P24941); experiment: Kinase selectivity profiling (focused panel), radioactive filter plate assay: CDK2; settings: Histone H1-derived peptide, 0.1 μM ATP, 60 min
T4 construct: purchased Carna Biosciences 04-103
Description: as §1, §2, §3, §4, §5

[5] = biological target: T5, GSK3b (Homo sapiens, UniProt P49841); experiment: Kinase selectivity profiling (focused panel), radioactive filter plate assay: GSK3b; settings: Phospho glycogen synthase peptide2, 1.5 μM ATP, 90 min
T5 construct: purchased Carna Biosciences 04-141
Description: as §1, §2, §3, §4, §5

[6] = biological target: T6, ABL (Homo sapiens, UniProt P00519); experiment: Kinase selectivity profiling (focused panel), radioactive filter plate assay: ABL; settings: PolyGT substrate, 0.5 μM ATP, 60 min
T6 construct: purchased Life Technologies P3049
Description: as §1, §2, §3, §4, §5

T1 sequence (P50750 whole entry): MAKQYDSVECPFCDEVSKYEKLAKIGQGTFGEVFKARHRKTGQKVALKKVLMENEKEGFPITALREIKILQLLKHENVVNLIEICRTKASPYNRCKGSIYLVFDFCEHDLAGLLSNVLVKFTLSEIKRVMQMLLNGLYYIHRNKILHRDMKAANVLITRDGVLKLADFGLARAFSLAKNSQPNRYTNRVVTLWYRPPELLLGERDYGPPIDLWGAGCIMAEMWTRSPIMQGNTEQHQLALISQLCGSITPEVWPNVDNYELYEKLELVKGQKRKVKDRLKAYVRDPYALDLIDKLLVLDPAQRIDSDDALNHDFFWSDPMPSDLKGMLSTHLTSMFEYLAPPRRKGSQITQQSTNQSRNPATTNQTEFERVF
T1 sequence (O60563 whole entry partner): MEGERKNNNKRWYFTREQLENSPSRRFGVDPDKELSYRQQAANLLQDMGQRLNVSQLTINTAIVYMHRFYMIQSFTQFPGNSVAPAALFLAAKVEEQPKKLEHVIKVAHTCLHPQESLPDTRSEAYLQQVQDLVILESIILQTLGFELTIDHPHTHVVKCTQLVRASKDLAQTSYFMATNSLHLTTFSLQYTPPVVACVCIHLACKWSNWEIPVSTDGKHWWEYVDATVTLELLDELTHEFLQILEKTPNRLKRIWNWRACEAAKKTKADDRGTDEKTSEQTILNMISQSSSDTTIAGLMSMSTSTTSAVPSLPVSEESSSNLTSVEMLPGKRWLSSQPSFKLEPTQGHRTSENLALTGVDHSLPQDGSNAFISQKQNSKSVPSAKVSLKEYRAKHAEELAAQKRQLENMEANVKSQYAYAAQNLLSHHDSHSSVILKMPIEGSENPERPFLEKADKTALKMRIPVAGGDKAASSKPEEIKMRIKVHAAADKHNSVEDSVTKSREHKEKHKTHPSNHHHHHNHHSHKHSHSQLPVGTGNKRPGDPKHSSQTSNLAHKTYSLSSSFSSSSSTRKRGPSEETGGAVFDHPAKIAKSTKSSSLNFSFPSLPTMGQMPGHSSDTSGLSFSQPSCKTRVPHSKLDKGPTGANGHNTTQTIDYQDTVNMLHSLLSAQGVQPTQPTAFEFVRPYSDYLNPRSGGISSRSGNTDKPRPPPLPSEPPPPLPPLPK
T6 sequence (P00519 whole entry): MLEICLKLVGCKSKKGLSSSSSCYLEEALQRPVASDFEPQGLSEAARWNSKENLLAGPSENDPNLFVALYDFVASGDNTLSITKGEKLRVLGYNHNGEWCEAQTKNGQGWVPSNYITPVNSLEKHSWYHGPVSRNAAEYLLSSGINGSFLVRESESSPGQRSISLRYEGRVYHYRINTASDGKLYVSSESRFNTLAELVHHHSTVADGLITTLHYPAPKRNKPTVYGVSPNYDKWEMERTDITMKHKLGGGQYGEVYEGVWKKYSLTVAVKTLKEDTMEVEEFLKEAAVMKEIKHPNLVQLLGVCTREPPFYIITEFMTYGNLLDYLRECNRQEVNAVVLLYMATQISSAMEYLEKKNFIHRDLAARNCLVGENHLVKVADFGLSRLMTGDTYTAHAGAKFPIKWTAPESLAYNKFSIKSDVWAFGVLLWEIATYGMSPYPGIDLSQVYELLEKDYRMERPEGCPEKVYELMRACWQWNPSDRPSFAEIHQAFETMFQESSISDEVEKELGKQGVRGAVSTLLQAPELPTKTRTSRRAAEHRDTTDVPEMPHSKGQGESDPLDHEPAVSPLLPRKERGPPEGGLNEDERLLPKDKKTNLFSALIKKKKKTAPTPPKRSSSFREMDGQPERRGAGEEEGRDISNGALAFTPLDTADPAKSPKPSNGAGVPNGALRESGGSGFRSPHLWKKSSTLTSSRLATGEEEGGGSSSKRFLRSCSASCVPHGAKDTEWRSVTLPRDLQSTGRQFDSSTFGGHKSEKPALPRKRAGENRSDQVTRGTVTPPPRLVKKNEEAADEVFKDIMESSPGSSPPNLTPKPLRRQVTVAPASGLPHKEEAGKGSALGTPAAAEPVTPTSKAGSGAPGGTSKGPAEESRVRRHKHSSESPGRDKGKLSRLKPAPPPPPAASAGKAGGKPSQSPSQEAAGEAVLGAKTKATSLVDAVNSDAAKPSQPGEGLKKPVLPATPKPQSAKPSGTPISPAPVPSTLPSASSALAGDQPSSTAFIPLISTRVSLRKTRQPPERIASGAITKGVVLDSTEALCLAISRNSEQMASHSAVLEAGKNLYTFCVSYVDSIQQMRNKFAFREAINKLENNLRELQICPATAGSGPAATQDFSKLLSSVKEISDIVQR
T2 sequence (P12931 whole entry): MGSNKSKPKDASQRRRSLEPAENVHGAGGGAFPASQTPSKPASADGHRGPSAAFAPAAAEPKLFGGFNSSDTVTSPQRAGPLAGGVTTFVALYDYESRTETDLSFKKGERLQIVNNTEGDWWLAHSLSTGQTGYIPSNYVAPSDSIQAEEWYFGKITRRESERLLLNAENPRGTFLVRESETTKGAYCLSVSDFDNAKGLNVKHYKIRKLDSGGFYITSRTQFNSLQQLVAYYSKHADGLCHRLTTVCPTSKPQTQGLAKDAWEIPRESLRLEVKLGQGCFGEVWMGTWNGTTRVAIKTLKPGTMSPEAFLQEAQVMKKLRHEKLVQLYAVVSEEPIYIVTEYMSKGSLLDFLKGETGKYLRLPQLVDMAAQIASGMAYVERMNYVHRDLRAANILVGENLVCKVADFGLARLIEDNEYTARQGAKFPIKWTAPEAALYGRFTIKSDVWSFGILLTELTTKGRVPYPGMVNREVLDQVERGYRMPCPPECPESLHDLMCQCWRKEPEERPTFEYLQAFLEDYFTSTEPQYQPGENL
T5 sequence (P49841 whole entry): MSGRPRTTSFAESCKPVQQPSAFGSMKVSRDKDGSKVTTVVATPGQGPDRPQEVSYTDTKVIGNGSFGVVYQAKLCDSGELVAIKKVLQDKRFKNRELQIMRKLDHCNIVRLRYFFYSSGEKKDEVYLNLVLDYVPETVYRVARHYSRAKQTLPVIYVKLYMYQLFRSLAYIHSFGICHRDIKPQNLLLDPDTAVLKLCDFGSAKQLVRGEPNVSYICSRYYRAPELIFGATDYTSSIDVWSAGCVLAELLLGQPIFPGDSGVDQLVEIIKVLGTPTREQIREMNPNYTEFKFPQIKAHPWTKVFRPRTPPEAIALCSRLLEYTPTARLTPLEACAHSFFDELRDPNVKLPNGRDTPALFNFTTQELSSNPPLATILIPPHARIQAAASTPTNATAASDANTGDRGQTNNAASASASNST

Which results are given for `N#Cc1ccc(-n2cnc3cc(OCCOCCO)c(N[C@@H]4COCC[C@@H]4O)nc32)nc1` (relative stereo) [Compound 11, 6-[6-[2-(2-hydroxyethoxy)ethoxy]-5-[[(cis-3,4)-4-hydroxytetrahydropyran-3-yl]amino]imidazo[4,5-b]pyridin-3-yl]pyridine-3-carbonitrile]?
IC50 [1]: 834 nM; IC50 [2]: > 1330 nM; IC50 [3]: 14.3 nM; IC50 [4]: > 1330 nM; IC50 [5]: > 1330 nM

Which IC50 [1] does the source give for `N#Cc1ccc(-n2cnc3cc(OCCOCCO)c(NC4CCS(=O)(=O)CC4)nc32)nc1` [Compound 2, 6-{5-(1,1-dioxo-tetrahydro-2H-thiopyran-4-ylamino)-6-[2-(2-hydroxy-ethoxy)-ethoxy]-imidazo[4,5-b]pyridin-3-yl}-nicotinonitrile] here?
Its IC50 is 712 nM.

What about the IC50 [2] of the same compound?
Its IC50 is greater than 1330 nM.

And the IC50 [3]?
Its IC50 is 25.4 nM.

And the IC50 [4]?
The IC50 was greater than 1330 nM.

And the IC50 [5]?
Its IC50 is greater than 1330 nM.

With `CN(c1nc2c(cc1OCCOCCO)ncn2-c1ccc(C#N)cn1)[C@H]1CC[C@@](C)(O)CC1` [Compound 3, 6-{6-[2-(2-hydroxy-ethoxy)-ethoxy]-5-[((cis-1,4)-4-hydroxy-4-methyl-cyclohexyl)-methyl-amino]-imidazo[4,5-b]pyridin-3-yl}-nicotinonitrile] as the compound, how does the IC50 [3] read?
The IC50 was 21.7 nM.

`COCCOCCOc1cc2ncn(-c3ccc(C#N)cn3)c2nc1N(C)C1CCOCC1` [Compound 4, 6-{6-[2-(2-methoxy-ethoxy)-ethoxy]-5-[methyl-(tetrahydro-pyran-4-yl)-amino]-imidazo[4,5-b]pyridin-3-yl}-nicotinonitrile] was tested. Which IC50 [3] did it give?
Its IC50 is 523 nM.

Which results are given for `COCCOCCOc1cc2ncn(-c3ccc(C#N)cn3)c2nc1NC1CCOCC1` [Compound 5, 6-[6-[2-(2-methoxy-ethoxy)-ethoxy]-5-(tetrahydro-pyran-4-ylamino)-imidazo[4,5-b]pyridin-3-yl]-nicotinonitrile]?
IC50 [1]: 2290 nM; IC50 [2]: > 2940 nM; IC50 [3]: 13.8 nM; IC50 [6]: 2690 nM; IC50 [4]: > 4000 nM; IC50 [5]: > 4000 nM

Which IC50 [1] does the source give for `N#Cc1ccc(-n2cnc3cc(OCCOCCO)c(NC4CCCC(O)C4)nc32)nc1` (centres unmarked) [Compound 6, 6-{5-(3-hydroxy-cyclohexylamino)-6-[2-(2-hydroxy-ethoxy)-ethoxy]-imidazo[4,5-b]pyridin-3-yl}-nicotinonitrile] here?
The IC50 was 1030 nM.

And the IC50 [2]?
The IC50 was 754 nM.

And the IC50 [3]?
Its IC50 is 4.85 nM.

And the IC50 [6]?
Its IC50 is 656 nM.

And the IC50 [4]?
The IC50 was 2670 nM.

And the IC50 [5]?
The IC50 was greater than 4000 nM.

How did the IC50 [3] turn out when `N#Cc1ccc(-n2cnc3cc(OCCOCCO)c(NC4CCC(F)(F)CC4)nc32)nc1` [Compound 7, 6-{5-(4,4-difluoro-cyclohexylamino)-6-[2-(2-hydroxy-ethoxy)-ethoxy]-imidazo[4,5-b]pyridin-3-yl}-nicotinonitrile] was run?
The IC50 was 14.3 nM.

With `N#Cc1ccc(-n2cnc3cc(OCCOCCOS(=O)(=O)O)c(NC4CCOCC4)nc32)nc1` [Compound 8, sulfuric acid mono-(2-{2-[3-(5-cyano-pyridin-2-yl)-5-(tetrahydro-pyran-4-ylamino)-3H-imidazo[4,5-b]pyridin-6-yloxy]-ethoxy}-ethyl) ester] as the compound, how does the IC50 [3] read?
Its IC50 is 51.4 nM.

How did the IC50 [1] turn out when `CC(C)[C@H](N)C(=O)OCCOCCOc1cc2ncn(-c3ccc(C#N)cn3)c2nc1NC1CCOCC1` [Compound 9, (S)-2-amino-3-methyl-butyric acid 2-{2-[3-(5-cyano-pyridin-2-yl)-5-(tetrahydro-pyran-4-ylamino)-3H-imidazo[4,5-b]pyridin-6-yloxy]-ethoxy}-ethyl ester] was run?
The IC50 was 639 nM.

What about the IC50 [2] of the same compound?
Its IC50 is 286 nM.

And the IC50 [3]?
Its IC50 is 13.5 nM.

And the IC50 [6]?
The IC50 was 633 nM.

And the IC50 [4]?
Its IC50 is greater than 4000 nM.

And the IC50 [5]?
Its IC50 is 3250 nM.

For `COCCOCCOc1cc2ncn(-c3ccc(C#N)cn3)c2nc1N(C)[C@H]1CC[C@@](C)(O)CC1` [Compound 13, 6-[5-[((cis-1,4)-4-hydroxy-4-methyl-cyclohexyl)-methyl-amino]-6-[2-(2-methoxyethoxy)ethoxy]imidazo[4,5-b]pyridin-3-yl]pyridine-3-carbonitrile], which IC50 [3] is on record?
Its IC50 is 39.1 nM.

Which IC50 [1] does the source give for `COCCOCCOc1cc2ncn(-c3ccc(C#N)cn3)c2nc1N[C@H]1CC[C@@](C)(O)CC1` [Compound 14, 6-[5-[((cis-1,4)-4-hydroxy-4-methylcyclohexyl)amino]-6-[2-(2-methoxyethoxy)ethoxy]imidazo[4,5-b]pyridin-3-yl]pyridine-3-carbonitrile] here?
The IC50 was 1390 nM.

And the IC50 [2]?
The IC50 was 319 nM.

And the IC50 [3]?
Its IC50 is 3.45 nM.

And the IC50 [4]?
Its IC50 is 1380 nM.

What about the IC50 [5] of the same compound?
Its IC50 is 2240 nM.
